Laboratory results as given in patent US20070105937A1, “Indole-3-propionamide and derivatives thereof” (priority 2003, published 2007).

Experiments:
rotifers (Philodina) [1] = assay: Synergistic effects on longevity of rotifers with ascorbate and trolox; type: in vivo; design: Maximum Life Span: unit not given here
Protocol: Ascorbate and trolox were administered at a concentration of 100 micromolar, the indoles were given at a concentration of 5 micromolar.

[2] = system: Hydroxyl Radical Mediated Oxidative Damage to DNA; assay: Inhibition of hydroxyl radical mediated oxidative damage to DNA in rat forebrain homogenate (8-hydroxydeoxyguanosine formation); type: biochemical; conditions: 60 min with 3 mM hydrogen peroxide, 4 mM ferrous sulfate, 2 mM ADP; mean+SD, N=6; read-out: IC 50 (concentration to reduce oxidative DNA damage by 50%)
Protocol: Rat forebrain homogenate was incubated for sixty minutes with 3 mM hydrogen peroxide, 4 mM ferrous sulfate and 2 mM ADP to generate hydroxyl radicals. The concentrations of each indole compound to reduce oxidative DNA damage by 50%, the IC 50 values, are given as means+standard deviations for N=6 different determinations. The IC 50 values were calculated by running six experiments each at 10 increasing concentrations ranging from 0.01 to 100 micromolar of melatonin, indole-3-propionic acid and indole-3-propionamide. DNA damage was examined by measuring the formation of 8-hydroxydeoxyguanosine with HPLC and electrochemical detection in the presence and absence of the hydroxyl radical scavengers.

[3] = in vivo; cited from earlier work
rotifers (Philodina) [4] = assay: Inhibition of the aging process in a rotifer model (life span); type: in vivo
Excerpt: Free-radicals are involved in the aging process and since IPAM is a powerful cytoprotective agent, we tested IPAM for its property to inhibit the aging process. […] (*=p<0.05, statistically significant difference to control).

Aβ1-40 = biological target: T1, Aβ1-40 (Homo sapiens, UniProt P05067); assay: Thioflavin T fluorescence, inhibition of Aβ aggregation; type: biochemical; conditions: Aβ 250 μM, compound:Aβ molar ratio 1:1; FIG. 1
T1 construct: thioflavin T fluorescence experiments performed with Aβ1-40
Protocol: FIG. 1 illustrates the results of thioflavin T fluorescence experiments performed with Aβ1-40 showing the effects of IPAM as compared with melatonin and IPA.
The ThT was performed as previously described. Briefly, 5 μl were obtained from each sample after incubation and added to 2 ml of a glycine-NaOH buffer (50 mM), pH 9.2, containing 2 μM thioflavin T. Fluorescence intensities were measured at excitation 435 nm and emission 485 nm in a Hitachi F-2000 fluorescence spectrophotometer. A time scan of fluorescence intensity was performed and three measurements were obtained after the decay reached a plateau at 200, 220, and 240 seconds. These measurements were averaged after subtracting the background fluorescence of 2.0 μM thioflavin T in the blank buffers. […] All measurements were done in triplicate. Aqueous stock solutions of 1 mM of each compound were made by first preparing a 10 mM suspension in 1 N HCl and then by completely dissolving them in 100 mM phosphate buffered saline at pH 7.4 (1:10, v:v) and re-adjusting the pH to 7.4 with 1 N NaOH. Solutions of Aβ were prepared by dissolving 2.2 mg of the peptide in 1 ml of 50 mM bicarbonate buffer at pH 9.6. 50 μl aliquots of this solution were lyophilized and stored at −80° C. until needed. Working stock solutions of the peptide (500 μM concentration) were prepared in HPLC-grade water immediately prior to the experiments. In the experimental samples, Aβ was further diluted 1:1 with phosphate buffered saline (pH 7.4, 100 mM) to which each of the compounds or equivalent volumes of buffer solution were added. The final concentration of Aβ in each sample was 250 μM and the compound:Aβ molar ratios were 1:1.

[5] = Time dependent indole levels in brain tissue after i.p. administration; type: in vivo, Sprague-Dawley rats; conditions: mean+SD, N=4
Protocol: Time dependent changes in indole levels in brain tissue (pg/mg protein) after administration of 0.5 mg/kg i.p. of drug in phosphate buffered saline to one month old male Sprague-Dawley rats (N=4 animals, mean+SD). Endogenous levels of melatonin in saline treated control animals were 25+10 pg/mg protein, endogenous levels of indolepropionate were 80+20 pg/mg protein. Significant amounts of endogenous IPAM in rat brain could not be detected. Brain tissue was homogenized 1:10 in phosphate buffer and extracted 1:1 with ethylacetate. Recovery for melatonin, indolepropionate and IPAM were 57+6, 69+12 and 80+4%. Indoles were measured by HPLC with electrochemical detection (20% methanol eluent, 990 mV oxidation potential, IPAM elutes at 18 minutes, melatonin at 21 minutes, indolepropionate at 36 minutes).

[6] = series against Control (0.1% DMSO), ascorbate, trolox 100 micromolar
[7] = 30 minutes after 0.5 mg/kg i.p. in phosphate buffered saline
[8] = 60 minutes after 0.5 mg/kg i.p. in phosphate buffered saline
[9] = 120 minutes after 0.5 mg/kg i.p. in phosphate buffered saline

T1 sequence (P05067 672-711): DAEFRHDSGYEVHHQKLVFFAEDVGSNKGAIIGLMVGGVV

Structure (SMILES) | Increase in % of control (Medium Life Span) (rotifers (Philodina) [1]; control = 0.1% DMSO) | Maximum Life Span (rotifers (Philodina) [1]; [6]) | IC50 [2] [µM] | half-life [3] [h] | Increase in % of control (maximum life span) (rotifers (Philodina) [4]; 0.5 μM) | Increase in % of control (median life span) (rotifers (Philodina) [4]; 0.5 μM) | Maximum life span in days (90% survival) (rotifers (Philodina) [4]; 0.5 μM, control 27) [days] | Increase in % of control (maximum life span) (rotifers (Philodina) [4]; 5 μM) | Increase in % of control (median life span) (rotifers (Philodina) [4]; 5 μM) | Maximum life span in days (90% survival) (rotifers (Philodina) [4]; 5 μM, control 30) [days] | Increase in % of control (median life span) (rotifers (Philodina) [4]; 50 μM) | Maximum life span in days (90% survival) (rotifers (Philodina) [4]; 50 μM, control 30) [days] | inhibition of Aβ aggregation (Aβ1-40) | indole levels in brain tissue [5, 7] | indole levels in brain tissue [5, 8] | indole levels in brain tissue [5, 9] | Increase in % of control (maximum life span) (rotifers (Philodina) [4]; 50 μM) | further results
O=C1O[C@H]([C@@H](O)CO)C(O)=C1O [Ascorbate] | −1% | 28 | – | – | – | – | – | – | – | – | – | – | – | – | – | – | – | Increase in % of control (maximum life span) (rotifers (Philodina) [1]; control = 0.1% DMSO): −7%; Maximum Life Span (rotifers (Philodina) [1]; series against Ascorbate in 0.1% DMSO, ascorbate 100 micromolar, indoles 5 micromolar): 30
O=C(O)CCc1c[nH]c2ccccc12 [IPA, indole-3-propionic acid] | – | – | 7.46 | 4.5 | +37% | +28% | 39 | +37% | +30% | 41 | −3% | 30 | potent inhibitor of Aβ aggregation | 160 + 11 pg/mg protein | 210 + 18 pg/mg protein | 230 + 25 pg/mg protein | – | –
NC(=O)CCc1c[nH]c2ccccc12 [IPAM, indole-3-propionamide] | – | – | 0.18 | – | +55% | +31% | 42 | +50% | +40% | 45 | +15% | 34 | potent inhibitor of Aβ aggregation | 480 + 46 pg/mg protein | 520 + 50 pg/mg protein | 570 + 69 pg/mg protein | +13% | toxicity in rotifers (rotifers (Philodina) [4]; in vivo): devoid of toxicity
COc1ccc2[nH]cc(CCNC(C)=O)c2c1 [Melatonin] | – | – | 1.4 | 0.333 | +30% | +19% | 35 | +40% | +29% | 42 | +12% | 31 | potent inhibitor of Aβ aggregation | 450 + 30 pg/mg protein | 200 + 15 pg/mg protein | 73 + 6 pg/mg protein | +3% | –
Cc1c(C)c2c(c(C)c1O)CCC(C)(C(=O)O)O2 (stereo not drawn) [Trolox] | +8% | 30 | – | – | – | – | – | – | – | – | – | – | – | – | – | – | – | Maximum Life Span (rotifers (Philodina) [1]; series against Trolox in 0.1% DMSO, trolox 100 micromolar, indoles 5 micromolar): 34
